Common to all, as to format: in vivo
For one assay, the system named is Abutilon theophrasti. Briefly: Pre-emergence herbicidal activity against ABUTH. The conditions noted are these: dosage 80 g/ha. The text has this: 1. Pre-Emergence Herbicidal Action and Crop Plant Compatibility Seeds of monocotyledonous and dicotyledonous weed plants and crop plants are placed in plastic or wood fiber pots and covered with soil. The compounds of the invention, formulated in the form of wettable powders (WP) or as emulsion concentrates (EC), are then applied onto the surface of the covering soil as aqueous suspension or emulsion with addition of 0.5% additive at a water application rate of 600 l/ha (converted). After the treatment, the pots are placed in a greenhouse and kept under good growth conditions for the trial plants. After about 3 weeks, the effect of the preparations is scored visually in comparison with untreated controls as percentages. For example, 100% activity=the plants have died, 0% activity=like control plants. ABUTH: Abutilon theophrasti ALOMY: Alopecurus myosuroides

Another assay has as its system Echinochloa crus-galli. Briefly: Post-emergence herbicidal activity against ECHCG. The conditions noted are these: Echinochloa crus-galli, 504 h, dosage 320 g/ha, rated about 3 weeks after treatment. How it is done: (§1) ECHCG: Echinochloa crus-galli HORMU: Hordeum murinum 2. Post-Emergence Herbicidal Action and Crop Plant Compatibility Seeds of monocotyledonous and dicotyledonous weeds and crop plants are placed in sandy loam in plastic or wood-fiber pots, covered with soil and cultivated in a greenhouse under controlled growth conditions. 2 to 3 weeks after sowing, the test plants are treated at the one-leaf stage. The compounds of the invention, formulated in the form of wettable powders (WP) or as emulsion concentrates (EC), are then sprayed onto the green parts of the plants as aqueous suspension or emulsion with addition of 0.5% additive at a water application rate of 600 l/ha (converted). After the test plants had been kept in the greenhouse under optimum growth conditions for about 3 weeks, the activity of the preparations is rated visually in comparison to untreated controls. For example, 100% activity=the plants have died, 0% activity=like control plants.

The next assay has as its system Viola tricolor. The experiment in a line: Post-emergence herbicidal activity against VIOTR. The conditions noted are these: Viola tricolor, 504 h, dosage 320 g/ha, rated about 3 weeks after treatment. As for the experimental part:
as §1, with “VIOTR: Viola tricolor” for “ECHCG: Echinochloa crus-galli HORMU: Hordeum murinum”

In a further assay the test system is Veronica persica. Briefly: Post-emergence herbicidal activity against VERPE. The conditions noted are these: Veronica persica, 504 h, dosage 320 g/ha. The essentials: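 Greenhouse plants treated at one-leaf stage, 2–3 weeks after sowing, by spraying WP or EC formulations with 0.5% additive at 600 l/ha water. Visual rating about 3 weeks later versus untreated controls (100% = plants dead, 0% = like controls).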

The test system of a further assay is Pharbitis purpurea. The experiment in a line: Post-emergence herbicidal activity against PHBPU. The conditions noted are these: Ipomoea purpurea, 504 h, dosage 320 g/ha, rated about 3 weeks after treatment. The gist of the method: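 Greenhouse-grown plants sprayed post-emergence at the one-leaf stage, 2 to 3 weeks after sowing, with WP or EC formulations plus 0.5% additive at 600 l/ha water. Activity rated visually after about 3 weeks versus untreated controls (100% = plants dead, 0% = like control).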

Assay [1] can be described thus: Post-emergence treatment, summary over harmful plants. The conditions noted are these: 504 h, application rate of 0.32 kg of active substance or less per hectare, read-out: herbicidal action, post-emergence treatment (very good herbicidal activity). How it is done:
2. Post-Emergence Herbicidal Action and Crop Plant Compatibility
as §1, with “Seeds” for “ECHCG: Echinochloa crus-galli HORMU: Hordeum murinum 2. Post-Emergence Herbicidal Action and Crop Plant Compatibility Seeds”
As shown by the results, compounds according to the invention such as, for example, the compounds No. I-35 and other compounds from the tables (for example I-28, I-38, I-01, I-19, I-36, I-29, I-32, I-11, I-12, I-37, I-06, I-09, I-33, I-34, I-13, I-04, I-26, I-21, I-30, I-05, I-03, I-20, I-27, I-14, I-10, I-23, I-07, I-25, I-02, I-08, I-24, I-41, I-42, I-43, I-44, I-46, I-49, I-54, I-55, I-56) have, when used for post-emergence treatment, very good herbicidal activity (80% to 100% herbicidal action) against harmful plants such as Abutilon theophrasti, Alopecurus myosuroides, Amaranthus retroflexus, Avena fatua, Echinochloa crus-galli, Hordeum murinum, Lolium rigidum, Pharbitis purpurea, Polygonum convolvulus, Setaria viridis, Stellaria media, Veronica persica and Viola tricolor at an application rate of 0.32 kg of active substance or less per hectare.

In the next assay the test system is Alopecurus myosuroides. The experiment in a line: Post-emergence herbicidal activity against ALOMY. The conditions noted are these: Alopecurus myosuroides, 504 h, dosage 320 g/ha, rated about 3 weeks after treatment. The gist of the method: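 Greenhouse-grown plants treated at one-leaf stage, 2 to 3 weeks after sowing, with WP or EC formulations sprayed as aqueous suspension/emulsion plus 0.5% additive at 600 l/ha. Activity rated visually about 3 weeks later versus untreated controls (100% = plants dead, 0% = like control).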

A further assay relates to Setaria viridis. Briefly: Post-emergence herbicidal activity against SETVI. The conditions noted are these: Setaria viridis, 504 h, dosage 320 g/ha, rated about 3 weeks after treatment. As for the experimental part: as §1, with “POLCO: Polygonum convolvulus SETVI: Setaria viridis” for “ECHCG: Echinochloa crus-galli HORMU: Hordeum murinum”
A further assay deals with Polygonum convolvulus. The experiment in a line: Post-emergence herbicidal activity against POLCO. The conditions noted are these: Fallopia convolvulus, 504 h, dosage 320 g/ha, rated about 3 weeks after treatment. The gist of the method: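 Greenhouse weeds in sandy loam were sprayed at the one-leaf stage, 2–3 weeks after sowing, with WP or EC formulations plus 0.5% additive at 600 l/ha water. About 3 weeks later, damage was rated visually against untreated controls, where 100% means plants dead and 0% means like control.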

The structures appear in SMILES notation.

In the case of `COC(=O)[C@H]1C[C@@H](NC(=O)C2(OC)CC(c3cc(Cl)cc(Cl)c3)=NO2)CO1` (relative stereo) [I-02, methyl cis-4-[[3-(3,5-dichlorophenyl)-5-methoxy-4H-isoxazole-5-carbonyl]amino]tetrahydrofuran-2-carboxylate], the “Pre-emergence herbicidal activity against ABUTH in %” value in the assay on Abutilon theophrasti amounted to 100%. In addition, the pest or weed control at 320 g/ha in the assay with Echinochloa crus-galli is 90%; in the assay with Viola tricolor, 80%; with Veronica persica, 80%; in the assay on Pharbitis purpurea, 90%; in assay [1], 80 to 100%; in the assay with Alopecurus myosuroides, 80%. Also, the pest or weed control at 320 g/ha in the assay on Setaria viridis was 80%; with Polygonum convolvulus, 90%.

Values taken from patent publication US11597724B2, “Herbicidally active 3-phenylisoxazoline-5-carboxamides of tetrahydro and dihydrofuran carboxylic acids and esters” (Bayer Aktiengesellschaft, priority 2017, dated 2023).
